Legend:
[1] = target: T1, N-arachidonyl glycine receptor (Homo sapiens) (UniProt Q14330); assay: (§1) Antagonist activity at recombinant human GPR18 expressed in CHO cells assessed as inhibition of delta9-THC-induced beta-arrestin recruitment preincubated for 60 mins followed by delta9-THC addition for 90 mins measured for 1 sec by luminescence assay; assay type: functional, cell-based
T1 sequence (whole entry): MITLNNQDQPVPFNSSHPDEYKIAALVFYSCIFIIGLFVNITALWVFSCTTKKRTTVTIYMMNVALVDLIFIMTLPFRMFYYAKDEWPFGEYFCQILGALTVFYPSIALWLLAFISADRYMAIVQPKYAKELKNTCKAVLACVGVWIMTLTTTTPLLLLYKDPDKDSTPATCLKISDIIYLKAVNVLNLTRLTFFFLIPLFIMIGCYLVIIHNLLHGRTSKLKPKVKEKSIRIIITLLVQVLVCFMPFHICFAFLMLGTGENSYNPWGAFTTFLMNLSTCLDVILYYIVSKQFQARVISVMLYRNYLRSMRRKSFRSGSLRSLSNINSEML

[2] = target: T2, N-arachidonyl glycine receptor (Homo sapiens, UniProt Q14330); assay: as §1; assay type: functional, cell-based
T2 sequence (Q14330 whole entry): T1 sequence (whole entry)

[3] = target: T1, N-arachidonyl glycine receptor (Homo sapiens); assay: (§2) Agonist activity at recombinant human GPR18 expressed in CHO cells assessed as increase in beta-arrestin recruitment incubated for 60 mins measured for 1 sec by luminescence assay; assay type: functional, cell-based
[4] = target: T2, N-arachidonyl glycine receptor; assay: as §2; assay type: functional, cell-based
[5] = target: T3, G-protein coupled receptor 55 (Homo sapiens, UniProt Q9Y2T6); assay: Antagonist activity at recombinant human GPR55 expressed in CHO cells assessed as inhibition of lysophosphatidylinositol-induced beta-arrestin recruitment preincubated for 60 mins followed by lysophosphatidylinositol addition for 90 mins measured for 1 sec by luminescence assay; assay type: functional, cell-based
T3 sequence (Q9Y2T6 whole entry): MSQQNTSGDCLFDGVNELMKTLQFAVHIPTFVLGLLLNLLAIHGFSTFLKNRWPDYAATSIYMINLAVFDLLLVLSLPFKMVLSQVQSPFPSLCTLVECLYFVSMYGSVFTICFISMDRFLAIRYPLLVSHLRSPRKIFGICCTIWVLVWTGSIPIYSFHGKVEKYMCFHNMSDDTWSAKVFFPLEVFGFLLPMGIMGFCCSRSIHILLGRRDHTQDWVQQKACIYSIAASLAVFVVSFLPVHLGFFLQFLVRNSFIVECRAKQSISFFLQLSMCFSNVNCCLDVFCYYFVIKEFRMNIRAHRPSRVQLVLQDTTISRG

[6] = target: T3, G-protein coupled receptor 55; assay: Agonist activity at recombinant human GPR55 expressed in CHO cells assessed as increase in beta-arrestin recruitment incubated for 60 mins measured for 1 sec by luminescence assay; assay type: functional, cell-based
[7] = target: Cannabinoid receptor 1 (Homo sapiens, UniProt P21554); assay: Displacement of [3H]CP55940 from recombinant human CB1 receptor expressed in CHO cell membranes after 2 hrs by liquid scintillation counting method; details: for inhibition: concentration not given here
Chain of Cannabinoid receptor 1 (P21554 whole entry): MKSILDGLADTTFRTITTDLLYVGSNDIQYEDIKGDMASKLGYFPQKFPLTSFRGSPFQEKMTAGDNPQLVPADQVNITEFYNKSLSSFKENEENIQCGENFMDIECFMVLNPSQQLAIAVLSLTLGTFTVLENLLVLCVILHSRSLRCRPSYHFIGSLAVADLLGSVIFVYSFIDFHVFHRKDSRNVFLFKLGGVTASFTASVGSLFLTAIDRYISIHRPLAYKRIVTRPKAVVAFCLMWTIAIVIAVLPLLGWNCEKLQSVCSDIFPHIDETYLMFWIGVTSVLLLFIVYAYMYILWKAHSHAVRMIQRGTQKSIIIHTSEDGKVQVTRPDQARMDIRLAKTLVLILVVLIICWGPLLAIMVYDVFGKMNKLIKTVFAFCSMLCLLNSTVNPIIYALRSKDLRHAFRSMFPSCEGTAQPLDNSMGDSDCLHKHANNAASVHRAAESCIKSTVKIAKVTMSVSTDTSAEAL

[8] = target: Cannabinoid receptor 2 (Homo sapiens, UniProt P34972); assay: Displacement of [3H]CP55940 from recombinant human CB2 receptor expressed in CHO cell membranes after 2 hrs by liquid scintillation counting method; details: for inhibition: concentration not given here
Chain of Cannabinoid receptor 2 (P34972 whole entry): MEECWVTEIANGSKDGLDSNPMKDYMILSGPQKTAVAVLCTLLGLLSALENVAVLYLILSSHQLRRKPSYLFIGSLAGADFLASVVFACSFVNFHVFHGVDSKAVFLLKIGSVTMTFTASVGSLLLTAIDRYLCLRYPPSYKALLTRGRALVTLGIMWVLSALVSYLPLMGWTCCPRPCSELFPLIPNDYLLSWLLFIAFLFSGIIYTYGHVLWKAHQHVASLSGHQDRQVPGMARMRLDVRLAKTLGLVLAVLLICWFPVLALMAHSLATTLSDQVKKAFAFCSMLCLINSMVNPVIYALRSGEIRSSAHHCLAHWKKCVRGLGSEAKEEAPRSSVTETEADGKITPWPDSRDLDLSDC

| Imax [8] [%] | SMILES | Imax [1] [%] | IC50 [2] [µM] | %max [3] [%] | EC50 [4] [µM] | IC50 [5] [µM] | Imax [5] [%] | %max [6] [%] | EC50 [6] [µM] | Ki [7] [µM] | inhibition [7] [%] | Ki [8] [µM] | inhibition [8] [%] | Imax [7] [%] | inhibition [1] [%] |
| --- | --- | --- | --- | --- | --- | --- | --- | --- | --- | --- | --- | --- | --- | --- | --- |
|  | CSC1=N/C(=C\c2cccc(OCc3ccc(Cl)cc3)c2)C(=O)N1C | 23 | > 10 | -2 | > 10 | > 10 | 35 | -2 | > 10 | > 10 | 19 | > 10 | 24 |  |  |
|  | O=C1NC(=O)/C(=C/c2cccc(OCc3ccc(Cl)cc3)c2)S1 | -10 | > 10 | -1 | > 10 | > 10 | -1 | 22 | > 10 | 5.04 |  | > 10 | 41 | 67 |  |
|  | O=C1/C(=C/c2cccc(OCCCCCCCCOc3ccc(Cl)cc3)c2)N=C2SCCCN12 | 124 | 1.15 | -25 | > 10 | > 10 | 43 | -18 | > 10 | > 10 | -9 | > 10 | -3 |  |  |
|  | O=C1/C(=C/c2cccc(OCCCCCCCOc3ccc(Cl)cc3)c2)N=C2SCCCN12 | 97 | 1.71 | 3 | > 10 | > 10 | 16 | 34 | > 10 | > 10 | 46 | > 10 | 15 |  |  |
|  | CN1C(=N)NC(=O)/C1=C/c1cccc(OCc2ccc(Cl)cc2)c1 | 4 | > 10 | 6 | > 10 | > 10 | -5 | 22 | > 10 | > 10 | 43 | 22.8 |  |  |  |
|  | O=C1/C(=C/c2cccc(OCCCCCCOc3cccc(Cl)c3)c2)N=C2SCCCN12 | 55 |  | 0 | > 10 | > 10 | 37 | 28 | > 10 | > 10 | 33 | > 10 | 46 |  |  |
|  | O=C1NC(SCc2ccc(Br)cc2)=N/C1=C\c1cccc(OCc2ccc(Cl)cc2)c1 | 44 | 2.29 | -11 | > 10 | > 10 | 36 | 13 | > 10 | > 10 | 31 | > 10 | 36 |  |  |
|  | O=C1/C(=C/c2cccc(OCCOc3ccc(Cl)cc3)c2)N=C2SCCCN12 | 123 | 5 | -10 | > 10 | 10.1 | 99 | -20 | > 10 | > 10 | 21 | > 10 | -9 |  |  |
|  | Cc1cccc(C)c1OCCCCCCOc1cccc(/C=C2\N=C3SCCCN3C2=O)c1 |  | 10 | 3 | > 10 | > 10 | 32 | 33 | > 10 | > 10 | 13 | > 10 | 46 |  | 55 |
|  | CCc1ccc(OCCCCCCOc2cccc(/C=C3\N=C4SCCCN4C3=O)c2)cc1 | 99 | 25 | 0 | > 10 | > 10 | 37 | 47 | > 10 | > 10 | 13 | > 10 | 13 |  |  |
|  | O=C1NC(SCc2ccccc2)=N/C1=C\c1cccc(OCc2ccc(Cl)cc2)c1 | 3 | > 10 | -17 | > 10 | > 10 | 17 | 21 | > 10 | > 10 | 11 | > 10 | 46 |  |  |
|  | O=C1/C(=C/c2cccc(OCCCOc3ccc(Cl)cc3)c2)N=C2SCCCN12 | 113 | 3.25 | -16 | > 10 | > 10 | 38 | -36 | > 10 | > 10 | 18 | > 10 | -2 |  |  |
|  | Cc1ccc(COc2cccc(/C=C3\N=C4SCCCN4C3=O)c2)cc1 | 61 | 3.59 | 2 | > 10 | 9.45 | 134 | -31 | > 10 | > 10 | 22 | > 10 | 25 |  |  |
|  | O=C1NC(SCCc2ccccc2)=N/C1=C\c1cccc(OCc2ccc(Cl)cc2)c1 | 103 | 4.78 | 2 | > 10 | > 10 | 27 | 21 | > 10 | > 10 | 18 | > 10 | 33 |  |  |
|  | O=C1/C(=C/c2cccc(OCCCc3ccccc3)c2)N=C2SCCCN12 | 136 | 1.49 | -30 | > 10 | 6.04 | 132 | -49 | > 10 | > 10 | 11 | > 10 | 23 |  |  |
|  | O=C1NC(SCc2ccc(F)cc2)=N/C1=C\c1cccc(OCc2ccc(Cl)cc2)c1 | 27 | > 10 | 23 | > 10 | > 10 | 44 | -21 | > 10 | > 10 | 42 | > 10 | 19 |  |  |
|  | Cc1ccc(CSC2=N/C(=C\c3cccc(OCc4ccc(Cl)cc4)c3)C(=O)N2)cc1 | 0 | > 10 | 4 | > 10 | > 10 | 48 | -12 | > 10 | > 10 | 38 | > 10 | 22 |  |  |
|  | O=C1/C(=C/c2cccc(OCCCCCCOc3ccccc3Cl)c2)N=C2SCCCN12 | 41 | > 10 | 10 | > 10 | 3.41 | 79 | 0 | > 10 | > 10 | 19 | > 10 | 29 |  |  |
|  | Cc1ccc(CSC2=N/C(=C\c3cccc(OCc4ccc(Cl)cc4)c3)C(=O)N2C)cc1 | 17 | > 10 | 7 | > 10 | > 10 | 33 | 20 | > 10 | > 10 | 15 | > 10 | 25 |  |  |
|  | O=C1/C(=C/c2cccc(OCCCCCOc3ccc(Cl)cc3)c2)N=C2SCCCN12 | 123 | 1.14 | -38 | > 10 | 3.77 | 124 | -21 | > 10 | > 10 | 8 | > 10 |  |  |  |
|  | O=C1NC(=S)N/C1=C\c1cccc(OCc2ccc(Cl)cc2)c1 | 165 | 33 | -14 | > 10 | 32.4 | 118 | 5 | > 10 | > 10 | 30 | > 10 | 19 |  |  |
|  | O=C1NC(=S)S/C1=C\c1cccc(OCc2ccc(Cl)cc2)c1 | 22 | > 10 | -38 | > 10 | > 10 | -18 | 29 | > 10 | > 10 | 47 | > 10 | 26 |  |  |
| 73 | CSC1=NC(=O)/C(=C/c2cccc(OCc3ccc(Cl)cc3)c2)N1 | 71 | 13.8 | 31 | > 10 | > 10 | 47 | 18 | > 10 | 2.21 |  | 0.591 |  |  |  |
|  | O=C1/C(=C/c2cccc(OCc3ccc(Br)cc3)c2)N=C2SCCCN12 | 74 | 1.73 | -9 | > 10 | 45.8 | 116 | -19 | > 10 | > 10 | 4 | > 10 | 4 |  |  |

— ChEMBL document CHEMBL4152303, “Structure-activity relationships of imidazothiazinones and analogs as antagonists of the cannabinoid-activated orphan G protein-coupled receptor GPR18” (Eur J Med Chem, 2018)
